Reference: patent US9783509B2, “Six-membered C-N-linked aryl sulfide derivatives and aryl sulfoxide derivatives as pest conrol agents” (BAYER CROPSCIENCE AKTIENGESELLSCHAFT, priority 2013, dated 2017)
Like-named read-outs stand apart in the source and are kept apart here.

Key:
[1] = log P by reversed-phase HPLC analogously to OECD Guideline 117; type: physicochemical
Procedure: The log P values were determined analogously to OECD Guideline 117 (EC Directive 92/69/EEC) by HPLC (high-performance liquid chromatography) using reversed-phase columns (C 18), by the following methods:
[a] LC-MS determination in the acidic range is effected at pH 2.7 with 0.1% aqueous formic acid and acetonitrile (containing 0.1% formic acid) as eluents with a linear gradient from 10% acetonitrile to 95% acetonitrile; or with 0.025% aqueous trifluoroacetic acid and acetonitrile (containing 0.025% trifluoroacetic acid) as eluents with a linear gradient from 50% acetonitrile to 80% acetonitrile.
[b] LC-MS determination in the neutral range is effected at pH 7.8 with 0.001 molar aqueous ammonium hydrogencarbonate solution and acetonitrile as eluents; linear gradient from 10% acetonitrile to 95% acetonitrile.
Calibration is effected with solutions of a homologous series of unbranched alkan-2-ones (having 3 to 16 carbon atoms) with known log P values (log P values determined on the basis of the retention times by linear interpolation between two successive alkanones).

[2] = test system: greenhouse red spider mite (Tetranychus urticae); experiment: Tetranychus urticae spray test, OP-resistant (bean leaf discs); type: in vivo; settings: after 6 days; for pest or weed control at 500 g/ha: Tetranychus urticae, foliar, 144 h, read-out: efficacy (spider mites killed)
Procedure: Tetranychus urticae—Spray Test, OP-Resistant
Solvent: 78.0 parts by weight of acetone • • 1.5 parts by weight of dimethylformamide
Emulsifier: alkylaryl polyglycol ether
To produce an appropriate active ingredient formulation, 1 part by weight of active ingredient is dissolved using the specified parts by weight of solvent and made up with water containing an emulsifier concentration of 1000 ppm until the desired concentration is attained. To produce further test concentrations, the preparation is diluted with emulsifier-containing water.
Discs of bean leaves (Phaseolus vulgaris) infested by all stages of the greenhouse red spider mite (Tetranychus urticae) are sprayed with an active ingredient formulation of the desired concentration.
After 6 days, the efficacy in % is determined. 100% means that all the spider mites have been killed; 0% means that none of the spider mites have been killed.

[3] = [a] acidic range, pH 2.7, formic acid (or trifluoroacetic acid)/acetonitrile
[4] = [b] neutral range, pH 7.8, ammonium hydrogencarbonate/acetonitrile
[5] = reversed-phase C18 HPLC column, pH 2.7, table column, [a] acidic range, pH 2.7, formic acid (or trifluoroacetic acid)/acetonitrile, read-out: LogP[a]
[6] = reversed-phase C18 HPLC column, pH 7.8, table column, [b] neutral range, pH 7.8, ammonium hydrogencarbonate/acetonitrile, read-out: LogP[b]
[7] = reversed-phase C18 HPLC column, pH 2.7, running text, [a] acidic range, pH 2.7, read-out: log P[a]
[8] = reversed-phase C18 HPLC column, pH 7.8, running text, [b] neutral range, pH 7.8, read-out: log P[b]
[9] = reversed-phase C18 HPLC column, pH 2.7, running text, HCOOH, read-out: log P(HCOOH)

Row | Molecule | efficacy (spider mites killed) ([2]; application rate 500 g/ha) [%] | LogP[a] [1, 3] | LogP[b] [1, 4] | also measured
1 | 1-{2,4-Diethyl-5-[(2,2,2-trifluoroethyl)sulphinyl]phenyl}-6-methyl-2,4-dioxo-1,2,3,4-tetrahydropyrimidine-5-carbonitrile |  |  |  | log P[a] ([1]; pH 2.7): 3.16
2 | Cn1c(=O)cnn(-c2cc([S+]([O-])CC(F)(F)F)c(Cl)cc2Cl)c1=O (racemic) [compound 13] | 90 | 2.48 |  | 
3 | Cc1ccc(-n2ncc(=O)n(C)c2=O)cc1[S+]([O-])CC(F)(F)F (racemic) [compound 24] | 100 | 1.84 | 1.83 | 
4 | CCn1c(=O)cnn(-c2cc([S+]([O-])CC(F)(F)F)c(C)cc2C)c1=O (racemic) [compound 35] | 100 | 2.31 | 2.27 | 
5 | Cc1cc(C)c([S+]([O-])CC(F)(F)F)cc1-n1ncc(=O)n(CC2CC2)c1=O (racemic) [compound 37] | 100 | 2.77 | 2.73 | 
6 | Cc1cc(C)c([S+]([O-])CC(F)(F)F)cc1-n1ncc(=O)n(C(C)C)c1=O (racemic) [compound 38] | 100 | 2.69 | 2.67 | 
7 | Cc1cc(C)c([S+]([O-])CC(F)(F)F)cc1-n1ncc(=O)n(Cc2ccccc2)c1=O (racemic) [compound 52] |  | 3.06 | 3.00 | efficacy (spider mites killed) ([2]; application rate 100 g/ha): 90%
8 | Cc1cc(C)c([S+]([O-])CC(F)(F)F)cc1-n1ncc(=O)n(CC(F)(F)F)c1=O (single isomer, unassigned) [compound 46] |  | 2.72 | 2.66 | 
9 | Cc1cc(F)c(-n2ncc(=O)n(CC(F)(F)F)c2=O)cc1[S+]([O-])CC(F)(F)F (single isomer, unassigned) [compound 51] |  | 2.62 | 2.57 | 
10 | Cc1cc(F)c(-n2ncc(=O)n(C)c2=O)cc1[S+]([O-])CC(F)(F)F (single isomer, unassigned; (-)) [Ex. No. 28, (−)-2-[2-fluoro-4-methyl-5-(2,2,2-trifluoroethylsulphinyl)phenyl]-4-methyl-1,2,4-triazine-3,5-dione] |  |  |  | chromatographic logP [1, 5]: 1.95; chromatographic logP [1, 6]: 1.9
11 | Cc1cc(F)c(-n2ncc(=O)[nH]c2=O)cc1SCC(F)(F)F [2-{2-Fluoro-4-methyl-5-[(2,2,2-trifluoroethyl)sulphanyl]phenyl}-1,2,4-triazine-3,5(2H,4H)-dione] |  |  |  | chromatographic logP [1, 7]: 2.45
12 | Cc1cc(F)c(-n2nc(C(=O)O)c(=O)[nH]c2=O)cc1SCC(F)(F)F [2-{2-Fluoro-4-methyl-5-[(2,2,2-trifluoroethyl)sulphanyl]phenyl}-3,5-dioxo-2,3,4,5-tetrahydro-1,2,4-triazine-6-carboxylic acid] |  |  |  | chromatographic logP [1, 7]: 1.79
13 | CCO/C=C/C(=O)NC(=O)Nc1cc(SCC(F)(F)F)c(C)cc1F [(2E)-3-Ethoxy-N-({2-fluoro-4-methyl-5-[(2,2,2-trifluoroethyl)sulphanyl]phenyl}carbamoyl)-acrylamide] |  |  |  | chromatographic logP [1, 7]: 3.78; chromatographic logP [1, 8]: 3.7
14 | CCOC(=O)c1cn(-c2cc(SCC(F)(F)F)c(C)cc2F)c(=O)n(C2CC2)c1=O [Ethyl 3-cyclopropyl-1-{2-fluoro-4-methyl-5-[(2,2,2-trifluoroethyl)sulphanyl]phenyl}-2,4-dioxo-1,2,3,4-tetrahydropyrimidine-5-carboxylate] |  |  |  | chromatographic logP [1, 7]: 3.07; chromatographic logP [1, 8]: 3.02
15 | CCOC(=O)NC(=O)c1nn(-c2cc(SCC(F)(F)F)c(C)cc2F)c(=O)[nH]c1=O [Ethyl [(2-{2-fluoro-4-methyl-5-[(2,2,2-trifluoroethyl)sulphanyl]phenyl}-3,5-dioxo-2,3,4,5-tetrahydro-1,2,4-triazin-6-yl)carbonyl]arbamate] |  |  |  | chromatographic logP ([1]; [a] acidic range, pH 2.7, read-out: log P[a]): 2.5
16 | Cc1cc(F)c(-n2ncc(=O)[nH]c2=O)cc1[S+]([O-])CC(F)(F)F (stereo not drawn) [Ex. No. 1, 2-{2-Fluoro-4-methyl-5-[(2,2,2-trifluoroethyl)sulphinyl]phenyl}-1,2,4-triazine-3,5(2H,4H)-dione] |  |  |  | chromatographic logP [1, 7]: 1.58; chromatographic logP [1, 5]: 1.58
17 | Cc1cc(C)c(-n2ncc(=O)n(C)c2=O)cc1SCC(F)(F)F [Ex. No. 5] | 100 | 3.08 |  | 

Row | Molecule | efficacy (spider mites killed) ([2]; application rate 500 g/ha) [%] | LogP[a] [1, 3] | LogP[b] [1, 4] | also measured
18 | Cc1cc(C)c(-n2ncc(=O)n(CC(F)(F)F)c2=O)cc1SCC(F)(F)F [Ex. No. 7] | 90 | 3.74 |  | 
19 | Cc1cc(F)c(-n2c(C)c(C#N)c(=O)[nH]c2=O)cc1[S+]([O-])CC(F)(F)F (stereo not drawn) [Ex. No. 16, 1-{2-Fluoro-4-methyl-5-[(2,2,2-trifluoroethyl)sulphinyl]phenyl}-6-methyl-2,4-dioxo-1,2,3,4-tetrahydropyrimidine-5-carbonitrile] |  |  |  | pest or weed control at 500 g/ha ([2]; application rate 500 g/ha): 90%; chromatographic logP [1, 5]: 1.58; chromatographic logP [1, 6]: 0.88
20 | Cc1cc(F)c(-n2c(C)c(C#N)c(=O)[nH]c2=O)cc1SCC(F)(F)F [Ex. No. 17, 1-{2-Fluoro-4-methyl-5-[(2,2,2-trifluoroethyl)sulphanyl]phenyl}-6-methyl-2,4-dioxo-1,2,3,4-tetrahydropyrimidine-5-carbonitrile] |  |  |  | pest or weed control at 500 g/ha ([2]; application rate 500 g/ha): 90%; chromatographic logP [1, 7]: 2.43; chromatographic logP [1, 5]: 2.43
21 | CCc1cc(CC)c([S+]([O-])CC(F)(F)F)cc1-n1c(C)c(C#N)c(=O)[nH]c1=O (stereo not drawn) [Ex. No. 18, 1-{2,4-Diethyl-5-[(2,2,2-trifluoroethyl)sulphinyl]phenyl}-6-methyl-2,4-dioxo-1,2,3,4-tetrahydropyrimidine-5-carbonitrile] |  |  |  | pest or weed control at 500 g/ha ([2]; application rate 500 g/ha): 90%; chromatographic logP [1, 7]: 2.15; chromatographic logP [1, 5]: 2.15; chromatographic logP [1, 8]: 1.55; chromatographic logP [1, 6]: 1.55
22 | Cc1cc(F)c(-n2ccc(=O)[nH]c2=O)cc1SCC(F)(F)F [Ex. No. 55, 1-{2-Fluoro-4-methyl-5-[(2,2,2-trifluoroethyl)sulphanyl]phenyl}pyrimidine-2,4(1H,3H)-dione] |  |  |  | pest or weed control at 500 g/ha ([2]; application rate 500 g/ha): 100%; chromatographic logP [1, 7]: 2.13; chromatographic logP [1, 5]: 2.06; chromatographic logP [1, 8]: 2.06; chromatographic logP [1, 6]: 2.13
23 | CCc1cc(CC)c(SSc2cc(NC(C)=O)c(CC)cc2CC)cc1NC(C)=O [N,N′-[Disulphanediylbis(4,6-diethylbenzene-3,1-diyl)]diacetamide] |  |  |  | chromatographic logP [1, 9]: 4.02
24 | CCc1cc(CC)c(SCC(F)(F)F)cc1NC(C)=O [N-{2,4-Diethyl-5-[(2,2,2-trifluoroethyl)sulphanyl]phenyl}acetamide] |  |  |  | chromatographic logP [1, 9]: 3.07
25 | Cc1ccc(-n2ncc(=O)n(C)c2=O)cc1SCC(F)(F)F [compound 23] | 100 | 2.9 | 2.83 | 
26 | Cc1cc(F)c(-n2ncc(=O)n(C(C)C)c2=O)cc1SCC(F)(F)F [compound 26] | 100 | 3.73 | 3.67 | 
27 | CCn1c(=O)cnn(-c2cc(SCC(F)(F)F)c(C)cc2C)c1=O [compound 33] | 100 | 3.45 | 3.38 | 
28 | Cc1cc(C)c(-n2ncc(=O)n(CC3CC3)c2=O)cc1SCC(F)(F)F [compound 34] | 100 | 3.94 | 3.87 | 
29 | Cc1cc(C)c(-n2ncc(=O)n(C(C)C)c2=O)cc1SCC(F)(F)F [compound 36] | 100 | 3.88 | 3.81 | 
30 | Cc1cc(C)c(-n2ncc(=O)n(CC#N)c2=O)cc1SCC(F)(F)F [compound 40] | 100 | 3.1 | 3.05 | 
31 | Cc1cc(C)c(-n2ncc(=O)n(CC(C)C)c2=O)cc1SCC(F)(F)F [compound 41] | 90 | 4.18 | 4.1 | 
32 | Cc1cc(F)c(-n2ncc(=O)n(Cc3ccccc3)c2=O)cc1SCC(F)(F)F [compound 42] | 100 | 4.04 | 3.93 | 
33 | CCCn1c(=O)ccn(-c2cc([S+]([O-])CC(F)(F)F)c(C)cc2F)c1=O (stereo not drawn) [compound 66] | 90 | 2.17 | 2.25 | 
34 | CCn1c(=O)ccn(-c2ccc(C)c(SCC(F)(F)F)c2)c1=O [compound 83] |  | 2.74 | 2.81 | 
